# Measured values as given in patent publication US20050014754A1, “Fused pyrrole compounds” (priority 2003, published 2005).
# What was measured:
# [1] = test system: TNFα; assay: In-vitro assay measuring TNFα inhibition (LPS-stimulated human PBMC, ELISA); assay type: cell-based; settings: human PBMC stimulated with LPS 1 μg/mL, supernatant after 18 h, read-out: IC50, inhibition of TNFα production
# Description: Reagents. Lipopolysaccharide (LPS, Serratia marscencens) was obtained from Sigma (St. Louis, Mo.). RPMI-1640 medium and fetal calf serum (FCS) were purchased from the ATCC (Manassas, Va.).
# Assay. Human peripheral blood cells (PBMC) were isolated by centrifugation using Ficoll-Paque (Pharmacia Biotech, Uppsala, Sweden) and suspended in RPMI-1640 medium supplemented with 10% FCS, 100 U/mL penicillin, and 100 μg/mL streptomycin. The cells were then plated in the wells of a 96-well plate at a concentration of 5×10^5 cells/well, and stimulated by adding LPS (1 μg/mL). Each test compound was dissolved in DMSO and added to the wells. The final DMSO concentration was adjusted to 0.25% in all cultures, including the compound-free control, and the concentrations of each test compound ranged from 0 to 10 μM. Cell-free supernatants were taken 18 h later for measurement of cytokines. Cell viability was assessed using the bioreduction of MTS [3-(4,5-dimethylthiazol-2-yl)-5-(3-carboxymethoxyphenyl)-2-(4-sulophenyl)-2H-tetrazolium] after 18 h and 48 h. Cell survival was estimated by determining the ratio of the absorbance in each of the compound-treated cultures to that in the compound-free control.
# The supernatant was assayed for the amount of TNFα by using an ELISA assay with anti-human TNFa antibodies (Cell Sciences, Norwood, Mass.). The assay was carried out following the manufacturer's instructions.
# [2] = test system: PDE4; assay: In-vitro assay measuring PDE4 inhibition (PDE4 from U937 human monocytic cells, [3H]-cAMP SPA); assay type: biochemical; settings: 23 nM [3H]-cAMP, 37° C., 30 min
# Description: PDE4 was prepared from U937 human monocytic cells according to the method of Tenor et al. (Clin Exp Allegy (1995) 25:625-633). Briefly, U937 cells were homogenized in a mixture of pH 7.4 containing 10 mM Hepes, 1 mM b-mercaptoethanol, 1 mM MgCl2, 1 mM EGTA, 137 mM NaCl, 2.7 mM KCl, 1.5 mM KH2PO4, 8.1 mM Na2HPO4, 5 μM pepstain A, 10 μM leupeptin, 50 μM PMSF, 10 μM soybean trypsin inhibitor, and 2 mM benzamindine. The homogenate was centrifuged at 200,000×g for 30 min. PDE4 activity in the supernatant was assayed in a 200 μl reaction containing 40 mM Tris-HCl, pH 7.5, 23 nM [^3H]-adenosine 3′,5′ cyclic monophosphate (cAMP), 8.3 mM MgCl2, 1.7 mM EGTA, 0.25% DMSO, and a testing compound. The assay mixture was incubated at 37° C. for 30 min and the reaction was terminated by the addition of 100 μl of yttrium silicate SPA beads (Amersham Pharmacia Biotech, Piscataway, N.J.) suspended in 18 mM ZnSO4. The assay mixture was rotated for 3 min to ensure the binding of [^3H]-5′adenosine monophosphate to the beads. Finally, the beads was spun down, washed twice with 6 mM ZnSO4, resuspended in 100 μl of 0.1 N NaOH, and then counted for radioactivity in a liquid scintillation counter.
# [3] = test system: MDA435 (human breast cancer); assay: In-vitro assay measuring anti-cancer activity (MTS assay); assay type: cell-based; settings: MDA435 cells, 72 hours incubation, read-out: IC50, concentration required to inhibit 50% tumor cell growth
# Description: In vitro anti-cancer activity was determined in human cancer cell line MDA435 (human breast cancer), obtained from ATCC (American Type of Culture Collection).
# The cell line was maintained in RPMI1640(GIBCO) supplemented with 10% FCS, 100 units/ml penicillin, 100 ug/ml streptomycin, and 2 mM L-glutamine. The cells were split every third day and diluted to a concentration of 2×10^5 cells/ml one day before experiment. The experiment was performed on exponentially growing cell culture. Cell densities were 2.5×10^4 cells/ml in this experiment.
# A stock solution of Compound (I-4) was prepared by dissolving the compound at a concentration of 1 mM in 100% DMSO. Final concentrations were obtained by diluting the stock solution directly into the tissue culture medium. Cells were incubated with varying concentrations of the compound for 72 hours and the IC50 was determined by MTS (i.e. 3-(4.5.-dimethylthiazol-2-yl)-2.5-diphenyl tetrazolium bromide) assay. In this experiment, IC50 stands for the concentration of compound required to inhibit 50% tumor cell growth. Compound (I-4) provided an IC50 value of about 1 μM.
IC50 [1] [nM],IC50 [2] [nM],IC50 [3] [nM],Structure (SMILES)
~50,~5,~1000,"O=C(Nc1c(Cl)c[n+]([O-])cc1Cl)C(=O)c1cc(Cc2ccc(F)cc2)n2ncccc12 [Compound I-4, N-(3,5-Dichloro-1-oxy-pyridin-4-yl)-2-[7-(4-fluoro-benzyl)-pyrrolo[1,2-b]pyridazin-5-yl]-2-oxo-acetamide]"
~1000,–,–,"Cc1cc(NC(=O)C(=O)c2cc(Cc3ccc(C#N)cc3)n3ccsc23)sn1 [Compound I-10, 2-[5-(4-Cyano-benzyl)-pyrrolo[2,1-b]thiazol-7-yl]-N-(3-methyl-isothiazol-5-yl)-2-oxo-acetamide]"
